Laboratory results reported in publication PMC8151276, “An Integrated Approach toward NanoBRET Tracers for Analysis of GPCR Ligand Engagement” (Molecules, 2021).

Key:
Assay type in all cases: binding
P2RY4 = target: T1, P2RY4 (Homo sapiens, UniProt P51582); assay: NanoBRET screen HiBiT-P2RY4 in HEK293
T1 construct: purchased Promega (in-house HiBiT-GPCR construct library, NanoBRET)
Description: (§1) Each tracer candidate was screened across the entire library of HiBiT-GPCR constructs using NanoBRET as the detection modality. As depicted in Figure 4A, the specificity of interactions was evaluated through decrease in BRET due to competitive displacement of a bound tracer by excess parental compound. Each tracer was analyzed for binding to each HiBiT-GPCR fusion in the absence and in the presence of competing parental compound. Briefly, HEK293 cells were transfected with HiBiT-GPCR constructs diluted into promoterless DNA to reduce expression and maximize translocation to the cell surface. Each tracer candidate was then screened at concentrations of 1 μM and 0.1 μM across cells expressing these fusions. Cells were treated for 1.5 h with tracer either alone or in the presence of 20 μM competing parental compound (i.e., control). BRET was measured upon addition of purified LgBiT and subsequent complementation with HiBiT genetically fused to a GPCR. The specificity of interactions was assessed through a decrease in BRET signal due to competitive displacement of the bound tracer. To further gauge the robustness of these interactions, the fold response over the control (i.e., BRETtracer/BRETcontrol) was calculated. We chose a 1.5-fold response, which translates to ≥7-fold signal over noise as the minimal threshold required to score an interaction as positive. […]. Below we highlight the screening results obtained for our exemplary fluorescent tracers based on Clozapine, Amitriptyline and AZD1283.
(§2) HiBiT-GPCR DNA constructs were diluted in 10 mM Tris pH 8 to a final concentration of 0.01 μg/μL, arrayed in 96-well plates and stored at −20 °C. For transfection, HEK293 cells were suspended in Opti-MEM (without phenol red) supplemented with 2% fetal bovine serum (Seradigm) and 100 units/mL penicillin–streptomycin (Gibco) at a final concentration of 220,000 cells/mL and dispensed into white 96-well plates at 90 μL/well. Subsequent transfections and screens were carried using an Agilent Bravo Automated Liquid Handling Platform. First, the 96-well HiBiT DNA arrays were diluted 25-fold in Opti-MEM (without serum or phenol red) to a final concentration of 0.0004 μg/μL and 20 μL of the diluted DNAs were transferred into new 96-well plates. Next, promoterless carrier DNA (1 μg/μL) was diluted 25-fold (0.04 μg/μL) and then dispensed into the diluted arrays at 20 μL/well. Following brief mixing, Viafect transfection reagent (Promega) diluted 16-fold into Opti-MEM was dispensed into the plates at 40 μL/well. After mixing by pipetting, plates were incubated for 10 min on the pipetting station deck. The DNA-transfection reagent complexes were then added to plates containing cells. To facilitate the screen, 10 μL of DNA-transfection reagent complexes were added in duplicates to the top 4 and bottom 4 rows, resulting in two identical 48-well arrays per plate. Plates with transfected cells were incubated for 18–20 h at 37 °C/5% CO2. A screen of each tracer across the entire library using two different concentrations requires duplicate plates of transfected cells. Depending on the number of tracers being screened, transfections can be scaled up using the same ratios. The next day, for each tracer, four 20× screening solutions in tracer dilution buffer (Promega) were prepared: two duplicates at final concentration of 20 μM and two duplicates at a final concentration of 2 μM. A competing unmodified compound was added to one of each duplicate at a final concentration of 400 μM. The four resulting solutions were diluted 4-fold in Opti-MEM without serum or phenol red to generate 5× solutions (5 µM and 0.5 µM tracer +/− 100 μM competing compound). To screen the library, a BioTek MultiFlo FX liquid dispenser was used to dispense 22.5 µL of tracer solution to the top 4 rows and 22.5 µL tracer + competing compound solution to the 4 bottom rows. Plates were briefly mixed on an orbital shaker and incubated for 1.5 h at room temperature. […]

HTR5A = target: T2, HTR5A (Homo sapiens, UniProt P47898); assay: NanoBRET screen HiBiT-HTR5A in HEK293
T2 construct: purchased Promega (in-house HiBiT-GPCR construct library, NanoBRET)
Description: as §1, §2

PTGFR = target: T3, PTGFR (Homo sapiens, UniProt P43088); assay: NanoBRET screen HiBiT-PTGFR in HEK293
T3 construct: purchased Promega (in-house HiBiT-GPCR construct library, NanoBRET)
Description: as §1, §2

GALR1 = target: T4, GALR1 (Homo sapiens, UniProt P47211); assay: NanoBRET screen HiBiT-GALR1 in HEK293
T4 construct: purchased Promega (in-house HiBiT-GPCR construct library, NanoBRET)
T4 sequence (P47211 1-349): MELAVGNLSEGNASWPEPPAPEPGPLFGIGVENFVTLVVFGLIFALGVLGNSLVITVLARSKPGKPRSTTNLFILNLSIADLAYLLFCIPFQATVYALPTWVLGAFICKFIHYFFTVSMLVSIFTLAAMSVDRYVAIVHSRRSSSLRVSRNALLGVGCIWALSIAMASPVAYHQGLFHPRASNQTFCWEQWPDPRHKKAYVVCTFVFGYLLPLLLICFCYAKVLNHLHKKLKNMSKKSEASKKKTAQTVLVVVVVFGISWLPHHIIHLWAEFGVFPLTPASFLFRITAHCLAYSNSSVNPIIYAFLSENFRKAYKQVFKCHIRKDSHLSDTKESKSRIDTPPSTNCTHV
Description: as §1, §2

OXER1 = target: T5, OXER1 (Homo sapiens, UniProt Q8TDS5); assay: NanoBRET screen HiBiT-OXER1 in HEK293
T5 construct: purchased Promega (in-house HiBiT-GPCR construct library, NanoBRET)
Description: as §1, §2

LTB4R2 = target: T6, LTB4R2 (Homo sapiens, UniProt Q9NPC1); assay: NanoBRET screen HiBiT-LTB4R2 in HEK293
T6 construct: purchased Promega (in-house HiBiT-GPCR construct library, NanoBRET)
T6 sequence (Q9NPC1 1-358): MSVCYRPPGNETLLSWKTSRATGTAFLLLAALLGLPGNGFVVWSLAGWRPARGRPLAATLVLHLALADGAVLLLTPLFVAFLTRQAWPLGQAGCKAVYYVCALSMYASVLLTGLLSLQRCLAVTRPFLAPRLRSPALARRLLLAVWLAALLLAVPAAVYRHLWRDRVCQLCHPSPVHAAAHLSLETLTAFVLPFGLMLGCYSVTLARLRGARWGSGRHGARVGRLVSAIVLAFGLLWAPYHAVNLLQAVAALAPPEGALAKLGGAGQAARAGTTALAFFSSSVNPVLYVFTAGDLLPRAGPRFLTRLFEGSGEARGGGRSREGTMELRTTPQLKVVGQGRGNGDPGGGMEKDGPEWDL
Description: as §1, §2

[1] = tracer at 0.1μM, listed as amitriptyline-b-2-NB590
[2] = tracer at 1μM, listed as amitriptyline-b-2-NB590

T3 sequence (P43088 whole entry): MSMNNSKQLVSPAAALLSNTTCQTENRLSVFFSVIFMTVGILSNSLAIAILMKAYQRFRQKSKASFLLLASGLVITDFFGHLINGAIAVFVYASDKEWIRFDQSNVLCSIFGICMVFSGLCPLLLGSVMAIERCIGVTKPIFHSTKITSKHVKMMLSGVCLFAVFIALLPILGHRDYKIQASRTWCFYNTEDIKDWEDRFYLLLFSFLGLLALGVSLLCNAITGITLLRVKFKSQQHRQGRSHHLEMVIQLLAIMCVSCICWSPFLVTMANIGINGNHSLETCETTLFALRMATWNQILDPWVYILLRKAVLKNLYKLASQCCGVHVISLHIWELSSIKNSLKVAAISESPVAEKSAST
T5 sequence (Q8TDS5 whole entry): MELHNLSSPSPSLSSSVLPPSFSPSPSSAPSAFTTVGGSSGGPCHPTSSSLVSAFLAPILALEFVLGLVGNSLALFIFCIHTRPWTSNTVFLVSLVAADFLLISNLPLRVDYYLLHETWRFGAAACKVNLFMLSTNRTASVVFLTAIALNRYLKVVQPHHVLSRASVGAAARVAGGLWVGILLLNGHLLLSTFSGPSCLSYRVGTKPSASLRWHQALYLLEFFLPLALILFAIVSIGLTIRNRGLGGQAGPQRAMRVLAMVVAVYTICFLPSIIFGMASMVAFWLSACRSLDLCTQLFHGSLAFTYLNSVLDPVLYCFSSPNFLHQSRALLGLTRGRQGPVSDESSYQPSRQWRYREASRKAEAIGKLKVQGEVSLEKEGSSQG
T2 sequence (P47898 whole entry): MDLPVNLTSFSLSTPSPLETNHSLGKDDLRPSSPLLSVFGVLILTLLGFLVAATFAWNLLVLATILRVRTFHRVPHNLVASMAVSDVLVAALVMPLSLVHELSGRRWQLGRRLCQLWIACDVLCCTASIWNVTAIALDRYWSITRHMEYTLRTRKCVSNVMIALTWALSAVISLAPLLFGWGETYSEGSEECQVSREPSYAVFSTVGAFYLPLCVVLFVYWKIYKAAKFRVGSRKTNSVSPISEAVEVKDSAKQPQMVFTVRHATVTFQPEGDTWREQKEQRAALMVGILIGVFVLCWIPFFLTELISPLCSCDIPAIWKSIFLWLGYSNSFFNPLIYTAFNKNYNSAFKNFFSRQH
T1 sequence (P51582 whole entry): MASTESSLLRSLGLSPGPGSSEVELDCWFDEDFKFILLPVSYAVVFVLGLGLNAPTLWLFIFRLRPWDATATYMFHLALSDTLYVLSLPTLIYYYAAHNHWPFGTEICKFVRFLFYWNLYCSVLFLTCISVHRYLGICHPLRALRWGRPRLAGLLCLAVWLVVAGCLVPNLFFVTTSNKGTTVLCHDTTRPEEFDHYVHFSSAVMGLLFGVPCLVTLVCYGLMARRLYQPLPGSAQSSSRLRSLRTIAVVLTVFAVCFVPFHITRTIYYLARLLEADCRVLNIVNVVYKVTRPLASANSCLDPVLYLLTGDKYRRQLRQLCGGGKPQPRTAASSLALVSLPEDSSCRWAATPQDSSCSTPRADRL

Compound: CCOC(=O)c1cc(C#N)c(N2CCC(C(=O)NS(=O)(=O)Cc3ccccc3/C=C/C(=O)NCCNC(=O)CCc3ccc4n3[B-](F)(F)[N+]3=C(c5ccc[nH]5)C=CC3=C4)CC2)nc1C [AZD1283-1-NB590]
- NanoBRET Fold Response (P2RY4; P2RY4, 0.1μM): 1.05
- NanoBRET Fold Response (P2RY4; P2RY4, 1μM): 1.12
- NanoBRET Fold Response (HTR5A; HTR5A, 0.1μM): 0.97
- NanoBRET Fold Response (HTR5A; HTR5A, 1μM): 1.04
- NanoBRET Fold Response (PTGFR; PTGFR, 0.1μM): 1.02
- NanoBRET Fold Response (PTGFR; PTGFR, 1μM): 1.02
- NanoBRET Fold Response (GALR1; GALR1, 0.1μM): 1.03
- NanoBRET Fold Response (GALR1; GALR1, 1μM): 1.09
- NanoBRET Fold Response (OXER1; OXER1, 0.1μM): 0.50
- NanoBRET Fold Response (OXER1; OXER1, 1μM): 1.03
- NanoBRET Fold Response (LTB4R2; LTB4R2, 0.1μM): 1.17
- NanoBRET Fold Response (LTB4R2; LTB4R2, 1μM): 1.18

Compound: N#CN/C(=N\CCNC(=O)c1ccc(N)cc1)NCCCOc1cccc(CN2CCCCC2)c1 [Aminopotentidine (unmodified)]
- NanoBRET Fold Response (HTR5A; HTR5A, other tracers/Aminopotentidine (unmodified), 0.1μM): 1.11
- NanoBRET Fold Response (HTR5A; HTR5A, other tracers/Aminopotentidine (unmodified), 1μM): 1.09

Compound: N#CN=C(NCCCOc1cccc(CN2CCCCC2)c1)NCCNC(=O)CCOCCOCCOCCOCCNC(=O)CCc1ccc2n1[B-](F)(F)[N+]1=C(c3ccc[nH]3)C=CC1=C2 [Aminopotentidine-2-NB590]
- NanoBRET Fold Response (P2RY4; P2RY4, tracer 0.1μM): 1.09
- NanoBRET Fold Response (P2RY4; P2RY4, tracer 1μM): 1.07
- NanoBRET Fold Response (HTR5A; HTR5A, tracer 0.1μM): 1.00
- NanoBRET Fold Response (HTR5A; HTR5A, tracer 1μM): 0.90
- NanoBRET Fold Response (PTGFR; PTGFR, tracer 0.1μM): 0.99
- NanoBRET Fold Response (PTGFR; PTGFR, tracer 1μM): 0.93
- NanoBRET Fold Response (GALR1; GALR1, tracer 0.1μM): 1.02
- NanoBRET Fold Response (GALR1; GALR1, tracer 1μM): 0.99
- NanoBRET Fold Response (OXER1; OXER1, tracer 0.1μM): 1.10
- NanoBRET Fold Response (OXER1; OXER1, tracer 1μM): 1.01
- NanoBRET Fold Response (LTB4R2; LTB4R2, tracer 0.1μM): 0.96
- NanoBRET Fold Response (LTB4R2; LTB4R2, tracer 1μM): 1.04

Compound: CN(C)CCC=C1c2ccccc2CCc2ccc(C(=O)NCCNC(=O)CCOCCOCCOCCOCCNC(=O)CCc3ccc4n3[B-](F)(F)[N+]3=C(c5ccc[nH]5)C=CC3=C4)cc21 [Amitriptyline-a-2-NB590]
- NanoBRET Fold Response (P2RY4; tracer at 0.1μM): 1.01
- NanoBRET Fold Response (P2RY4; tracer at 1μM): 1.02
- NanoBRET Fold Response (HTR5A; tracer at 0.1μM): 1.08
- NanoBRET Fold Response (GALR1; tracer at 0.1μM): 1.05
- NanoBRET Fold Response (GALR1; tracer at 1μM): 0.97
- NanoBRET Fold Response (LTB4R2; tracer at 0.1μM): 0.97
- NanoBRET Fold Response (LTB4R2; tracer at 1μM): 1.08

Compound: CN(C)CCC=C1c2ccccc2CCc2ccc(C(=O)NCCNC(=O)CCOCCOCCOCCOCCNC(=O)CCc3ccc4n3[B-](F)(F)[N+]3=C(c5ccc[nH]5)C=CC3=C4)cc21 [Amitriptyline-b-2-NB590]
- NanoBRET Fold Response (P2RY4; [1]): 1.07
- NanoBRET Fold Response (HTR5A; [1]): 1.22
- NanoBRET Fold Response (HTR5A; [2]): 1.26
- NanoBRET Fold Response (PTGFR; tracer at 0.1μM): 1.01
- NanoBRET Fold Response (PTGFR; tracer at 1μM): 1.00
- NanoBRET Fold Response (GALR1; [1]): 0.98
- NanoBRET Fold Response (GALR1; [2]): 1.03
- NanoBRET Fold Response (OXER1; tracer at 0.1μM): 1.08
- NanoBRET Fold Response (OXER1; tracer at 1μM): 0.97
- NanoBRET Fold Response (LTB4R2; [1]): 1.03
- NanoBRET Fold Response (LTB4R2; [2]): 1.03
